Data on 3 compounds can be found in patent US20120295838A1, “Selective poly-substituted glycine antibiotics and related compositions” (priority 2008, published 2012).

The test system of data set [1] is A549 lung epithelial cells. As to the kind of experiment: MTS assay, A549 cells. The protocol: The biocompatibility of selected oligomers with A549 lung epithelial cells was evaluated using the MTS [3-(4,5-dimethylthiazol-2-yl)-5-(3-carboxymethoxyphenyl)-2-(4-sulfophenyl)-2H-tetrazolium] assay.
MTS Assays. A549 carcinoma-derived lung epithelial cells (ATTC CCL-185) were cultured in Ham's F12K media (ATTC, Manassas, Va.). A peptoid solution plate (100 μL/well) was prepared by serial dilution of aqueous peptoid stocks in media. Peptoid solutions were transferred onto a 96-well plate of day-old cell monolayers containing 100 μL/well media with 5000 cells/well. MTS reagent (Promega Corporation, Madison, Wis.) (40 μL/well) was added to each well and the plate was incubated at 37° C. for 3 h, after which absorbance at 490 nm was determined. Percent inhibition was determined as [1−(A−Atest blank)/(Acontrol−Ablank)]×100, where A is the absorbance of the test well and Acontrol the average absorbance of wells with cells exposed to media and MTS (no peptoid). Atest blank (media, MTS, and peptoid) and Ablank (media and MTS) were background absorbances measured in the absence of cells. The average of six replicates are reported, and error bars show one standard deviation.

The test system of data set [2] is Staphyloccus aureus (ATCC #25923). As to the kind of experiment: Murine intraperitoneal infection model. Type of data set: in vivo. The note with it: mouse, S. aureus I.P. The protocol: Using a murine peritoneal injection mouse model, the ability of peptoids to treat infection was evaluated in vivo. The results from three separate studies of peptoid 1 and two of peptoid 1-Nhis6,12 against saline treated controls are shown in FIG. 7. The horizontal line represents the geometric mean of each population.
Murine intraperitoneal infection model. Bacteria was prepared by inoculating 5 mL of MHB with a single colony of Staphyloccus aureus (ATCC #25923) from a freshly streaked plate and grown overnight at 37 C. The following morning, the bacteria was subcultured by diluting 1/3 in MHB and grown for approximately 1 .5 hours. The bacteria were then diluted 10-fold in a 5% mucin in PBS solution and thoroughly mixed. A sample was reserved to later determine the amount of bacteria the mice received.
Mice were weighed, marked, and injected I.P. with 200 uL of S. aureus inoculum. Four hours post infection, mice were treated I.P. with 4 mg/kg peptoid (˜100 ug per mouse). The infection is allowed to proceed overnight. Mice were euthanized by CO2 asphyxiation after 24 hours, and the peritoneal cavity was exposed and lavaged with 5 mL PBS. The lavage was mixed and reserved on ice until plating. The lavages were diluted to 10^−5 (in1/10 increments) in PBS, and all dilutions were plated onto MH agar, in duplicate. 50 uL of lavage was spot plated, allowed to dry, and incubated overnight at 37° C. Colonies were counted the following day, and the CFU/ml of each sample was calculated. Plates that had too many colonies to count were assigned an arbitrary number of 1000 colonies.

A further data set can be described thus: MTS assay, NIH 3T3 cells. Type of data set: cell-based, mouse. To be noted: mouse, NIH 3T3 fibroblast cells. In a few lines:
(§1)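 NIH/3T3 cells seeded at 5,000 per well, grown a day in DMEM with 10% FBS, then washed and exposed to serially diluted peptoid in HBSS together with MTS reagent. Absorbance at 490 nm read after 3 hours at 37 °C as a measure of metabolic activity; mean of six replicates.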

In data set [3] the test system is NIH 3T3 mouse fibroblast cells. As to the kind of experiment: MTS assay, NIH 3T3 cells. Type of data set: cell-based. To be noted: mouse, 3 h. An outline of the steps:
as §1
(Tetrazolium dyes change colour on reduction, which living cells bring about.)

Numbered stars: 1 amine (or outer) side, 2 acyl side, 3 side chain; on linkers, the order of the positions; unused ones are H or OH. Square brackets hold non-standard residues; d marks the D form. Ends that are not written are not given here. Peptide text beside a SMILES is read from it. Gly(N-CH2CH2-imidazol-4-yl) = O=C(O)CNCCc1c[nH]cn1; X1 = CC(C)[C@H](C)N(CC(=O)[*:2])[*:1]; Nspe = C[C@H](NCC(=O)O)c1ccccc1; Nlys = NCCCCNCC(=O)O

`C[C@@H](c1ccccc1)N(CC(=O)N(CCc1cnc[nH]1)CC(=O)N(CCCCN)CC(=O)N(CC(=O)N(CC(=O)N(CCCCN)CC(=O)N(CC(=O)N(CCc1cnc[nH]1)CC(N)=O)[C@@H](C)c1ccccc1)[C@@H](C)c1ccccc1)[C@@H](C)c1ccccc1)C(=O)CN(CCCCN)C(=O)CN(C(=O)CN(C(=O)CNCCCCN)[C@@H](C)c1ccccc1)[C@@H](C)c1ccccc1` [1-Nhis6,12, H-(Nlys-Nspe-Nspe-Nlys-Nspe-Nhis)2-NH2] (H-[Nlys][Nspe][Nspe][Nlys][Nspe][Gly(N-CH2CH2-imidazol-4-yl)][Nlys][Nspe][Nspe][Nlys][Nspe][Gly(N-CH2CH2-imidazol-4-yl)]-NH2): in data set [1], the “ID10 relative to that of pexiganan” value is on record as 20 times. For the same compound, the “bacterial counts from the peritoneal lavage” value in data set [2] (4 mg/kg peptoid I.P. four hours post infection, 24 hours, vs saline treated controls) is recorded as “not reduced”. The “mice that died prematurely during the exposure period” value in data set [2] (4 mg/kg peptoid I.P., eleven mice for 1-Nhis6,12) is reported as “eight”. For the compound `CC(C)[C@H](C)N(CC(=O)N(CC(=O)N(CCCCN)CC(=O)N(CC(=O)N(CC(=O)N(CCCCN)CC(=O)N(CC(=O)N(CC(=O)N(CCCCN)CC(=O)N(CC(=O)N(CC(N)=O)[C@@H](C)c1ccccc1)[C@@H](C)C(C)C)[C@@H](C)c1ccccc1)[C@@H](C)C(C)C)[C@@H](C)c1ccccc1)[C@@H](C)C(C)C)[C@@H](C)c1ccccc1)C(=O)CNCCCCN` [1-Nsdp2,5,8,11, H-(Nlys-Nsdp-Nspe)4-NH2] (H-[Nlys][X1][Nspe][Nlys][X1][Nspe][Nlys][X1][Nspe][Nlys][X1][Nspe]-NH2), the midpoint of cytotoxicity in the data set “MTS assay, NIH 3T3 cells”, the CC50 at 3 h, lay at 20 µM.

Consider “GIGKFLKKAKKFGKAFVKILKK-NH2 [pexiganan, reference compound]”, for which the ID50 in data set [3] worked out at 9 µM.
